Measurements taken from US8580918B2, “Peptidic GLP-2 agonists” (Ferring B.V., priority 2009, dated 2013).
Where a SMILES comes first, the peptide text is derived from it. [ ]: non-standard residue; d: D form. dPhe(3-Cl) = N[C@H](Cc1cccc(Cl)c1)C(=O)O; dPhe(2-Cl) = N[C@H](Cc1ccccc1Cl)C(=O)O; d2Thi = N[C@H](Cc1cccs1)C(=O)O; d3Thi = N[C@H](Cc1ccsc1)C(=O)O; Nle = CCCC[C@H](N)C(=O)O

Experiment: Pharmacokinetics in rats after intravenous bolus injection (systemic clearance)
Format: in vivo
Settings: rat, plasma, 0.2 mg FB/kg, adult male Sprague-Dawley rats, i.v. bolus, dose 0.20 mg FB/kg, read-out: CL (ml/kg/min) Average
Experimental: Pharmacokinetic (PK) parameters of illustrative agonists of the GLP-2 receptor were determined in adult male Sprague-Dawley rats post intravenous bolus injection of compounds at doses of 0.1-1.0 mg/kg. Three or four doubly cannulated animals per compound were dosed via jugular vein, blood samples were collected at several intervals via carotid artery, and plasma samples were prepared from whole blood using K2EDTA as anticoagulant. Subsequent bioanalysis of samples included compound extraction and plasma concentration determination using standard LC/MS/MS methods. Analyte concentration was calculated from internal standard normalized peak area and calibration curves.
For calculation of PK parameters the compound concentration-time curves were analyzed with the noncompartmental data analysis software package PK Solutions 2.0™ (Summit Research Services, Montrose Colo.). The systemic clearance per kg body weight (CL) was calculated as the dose per kg body weight divided by the AUC extrapolated to infinity based on trapezoid calculation (AUC∞). Values reported are the arithmetic mean and standard deviation from the number of animals used for each compound as indicated on Table 3.

Row | SMILES | clearance [mL/kg/min]
1 | CCCC[C@H](NC(=O)[C@H](CCC(=O)O)NC(=O)[C@H](CC(=O)O)NC(=O)[C@H](CO)NC(=O)[C@H](Cc1ccccc1)NC(=O)[C@H](CO)NC(=O)CNC(=O)[C@H](CC(=O)O)NC(=O)CNC(=O)[C@@H](N)Cc1c[nH]cn1)C(=O)N[C@H](Cc1cccs1)C(=O)N[C@H](C(=O)N[C@H](C(=O)N[C@@H](CC(C)C)C(=O)N[C@@H](CC(=O)O)C(=O)N[C@@H](CC(N)=O)C(=O)N[C@@H](CC(C)C)C(=O)N[C@@H](C)C(=O)N[C@@H](C)C(=O)N[C@@H](CCCNC(=N)N)C(=O)N[C@@H](CC(=O)O)C(=O)N[C@@H](Cc1ccccc1)C(=O)N[C@H](C(=O)N[C@@H](CC(N)=O)C(=O)N[C@@H](Cc1c[nH]c2ccccc12)C(=O)N[C@@H](CC(C)C)C(=O)N[C@H](C(=O)N[C@@H](CCC(N)=O)C(=O)N[C@H](C(=O)N[C@@H](CCCCN)C(N)=O)[C@@H](C)O)[C@@H](C)CC)[C@@H](C)CC)[C@@H](C)CC)[C@@H](C)O [Compound 32, [Gly2,Nle10,D-Thi11] hGLP-2 (1-30)-NH2] (H-HGDGSFSDE[Nle][d2Thi]TILDNLAARDFINWLIQTK-NH2) | 1.1
2 | CCCC[C@H](NC(=O)[C@H](CCC(=O)O)NC(=O)[C@H](CC(=O)O)NC(=O)[C@H](CO)NC(=O)[C@H](Cc1ccccc1)NC(=O)[C@H](CO)NC(=O)CNC(=O)[C@H](CC(=O)O)NC(=O)CNC(=O)[C@@H](N)Cc1c[nH]cn1)C(=O)N[C@H](Cc1ccc(O)cc1)C(=O)N[C@H](C(=O)N[C@H](C(=O)N[C@@H](CC(C)C)C(=O)N[C@@H](CC(=O)O)C(=O)N[C@@H](CC(N)=O)C(=O)N[C@@H](CC(C)C)C(=O)N[C@@H](C)C(=O)N[C@@H](C)C(=O)N[C@@H](CCCNC(=N)N)C(=O)N[C@@H](CC(=O)O)C(=O)N[C@@H](Cc1ccccc1)C(=O)N[C@H](C(=O)N[C@@H](CC(N)=O)C(=O)N[C@@H](Cc1c[nH]c2ccccc12)C(=O)N[C@@H](CC(C)C)C(=O)N[C@H](C(=O)N[C@@H](CCC(N)=O)C(=O)N[C@H](C(=O)N[C@@H](CCCCN)C(N)=O)[C@@H](C)O)[C@@H](C)CC)[C@@H](C)CC)[C@@H](C)CC)[C@@H](C)O [Compound 39, [Gly2,Nle10,D-Tyr11] hGLP-2 (1-30)-NH2] (H-HGDGSFSDE[Nle][dY]TILDNLAARDFINWLIQTK-NH2) | 4.9
3 | CCCC[C@H](NC(=O)[C@H](CCC(=O)O)NC(=O)[C@H](CC(=O)O)NC(=O)[C@H](CO)NC(=O)[C@H](Cc1ccccc1)NC(=O)[C@H](CO)NC(=O)CNC(=O)[C@H](CC(=O)O)NC(=O)CNC(=O)[C@@H](N)Cc1c[nH]cn1)C(=O)N[C@H](Cc1ccccc1Cl)C(=O)N[C@H](C(=O)N[C@H](C(=O)N[C@@H](CC(C)C)C(=O)N[C@@H](CC(=O)O)C(=O)N[C@@H](CC(N)=O)C(=O)N[C@@H](CC(C)C)C(=O)N[C@@H](C)C(=O)N[C@@H](C)C(=O)N[C@@H](CCCNC(=N)N)C(=O)N[C@@H](CC(=O)O)C(=O)N[C@@H](Cc1ccccc1)C(=O)N[C@H](C(=O)N[C@@H](CC(N)=O)C(=O)N[C@@H](Cc1c[nH]c2ccccc12)C(=O)N[C@@H](CC(C)C)C(=O)N[C@H](C(=O)N[C@@H](CCC(N)=O)C(=O)N[C@H](C(=O)N[C@@H](CCCCN)C(N)=O)[C@@H](C)O)[C@@H](C)CC)[C@@H](C)CC)[C@@H](C)CC)[C@@H](C)O [Compound 40, [Gly2,Nle10,D-2-Cpa11] hGLP-2 (1-30)-NH2] (H-HGDGSFSDE[Nle][dPhe(2-Cl)]TILDNLAARDFINWLIQTK-NH2) | 0.73
4 | CCCC[C@H](NC(=O)[C@H](CCC(=O)O)NC(=O)[C@H](CC(=O)O)NC(=O)[C@H](CO)NC(=O)[C@H](Cc1ccccc1)NC(=O)[C@H](CO)NC(=O)CNC(=O)[C@H](CC(=O)O)NC(=O)CNC(=O)[C@@H](N)Cc1c[nH]cn1)C(=O)N[C@H](Cc1ccsc1)C(=O)N[C@H](C(=O)N[C@H](C(=O)N[C@@H](CC(C)C)C(=O)N[C@@H](CC(=O)O)C(=O)N[C@@H](CC(N)=O)C(=O)N[C@@H](CC(C)C)C(=O)N[C@@H](C)C(=O)N[C@@H](C)C(=O)N[C@@H](CCCNC(=N)N)C(=O)N[C@@H](CC(=O)O)C(=O)N[C@@H](Cc1ccccc1)C(=O)N[C@H](C(=O)N[C@@H](CC(N)=O)C(=O)N[C@@H](Cc1c[nH]c2ccccc12)C(=O)N[C@@H](CC(C)C)C(=O)N[C@H](C(=O)N[C@@H](CCC(N)=O)C(=O)N[C@H](C(=O)N[C@@H](CCCCN)C(N)=O)[C@@H](C)O)[C@@H](C)CC)[C@@H](C)CC)[C@@H](C)CC)[C@@H](C)O [Compound 42, [Gly2,Nle10,D-3-Thi11] hGLP-2 (1-30)-NH2] (H-HGDGSFSDE[Nle][d3Thi]TILDNLAARDFINWLIQTK-NH2) | 1.3
5 | CCCC[C@H](NC(=O)[C@H](CCC(=O)O)NC(=O)[C@H](CC(=O)O)NC(=O)[C@H](CO)NC(=O)[C@H](Cc1ccccc1)NC(=O)[C@H](CO)NC(=O)CNC(=O)[C@H](CC(=O)O)NC(=O)CNC(=O)[C@@H](N)Cc1c[nH]cn1)C(=O)N[C@H](Cc1cccc(Cl)c1)C(=O)N[C@H](C(=O)N[C@H](C(=O)N[C@@H](CC(C)C)C(=O)N[C@@H](CC(=O)O)C(=O)N[C@@H](CC(N)=O)C(=O)N[C@@H](CC(C)C)C(=O)N[C@@H](C)C(=O)N[C@@H](C)C(=O)N[C@@H](CCCNC(=N)N)C(=O)N[C@@H](CC(=O)O)C(=O)N[C@@H](Cc1ccccc1)C(=O)N[C@H](C(=O)N[C@@H](CC(N)=O)C(=O)N[C@@H](Cc1c[nH]c2ccccc12)C(=O)N[C@@H](CC(C)C)C(=O)N[C@H](C(=O)N[C@@H](CCC(N)=O)C(=O)N[C@H](C(=O)N[C@@H](CCCCN)C(N)=O)[C@@H](C)O)[C@@H](C)CC)[C@@H](C)CC)[C@@H](C)CC)[C@@H](C)O [Compound 44, [Gly2,Nle10,D-3-Cpa11] hGLP-2 (1-30)-NH2] (H-HGDGSFSDE[Nle][dPhe(3-Cl)]TILDNLAARDFINWLIQTK-NH2) | 0.32
6 | CCCC[C@H](NC(=O)[C@H](CCC(=O)O)NC(=O)[C@H](CC(=O)O)NC(=O)[C@H](CO)NC(=O)[C@H](Cc1ccccc1)NC(=O)[C@H](CO)NC(=O)CNC(=O)[C@H](CC(=O)O)NC(=O)CNC(=O)[C@@H](N)Cc1c[nH]cn1)C(=O)N[C@H](Cc1cccs1)C(=O)N[C@H](C(=O)N[C@H](C(=O)N[C@@H](CC(C)C)C(=O)N[C@@H](CC(=O)O)C(=O)N[C@@H](CC(C)C)C(=O)N[C@@H](CC(C)C)C(=O)N[C@@H](C)C(=O)N[C@@H](C)C(=O)N[C@@H](CCCNC(=N)N)C(=O)N[C@@H](CC(=O)O)C(=O)N[C@@H](Cc1ccccc1)C(=O)N[C@H](C(=O)N[C@@H](CC(N)=O)C(=O)N[C@@H](Cc1c[nH]c2ccccc12)C(=O)N[C@@H](CC(C)C)C(=O)N[C@H](C(=O)N[C@@H](CCC(N)=O)C(=O)N[C@H](C(=O)N[C@@H](CCCCN)C(N)=O)[C@@H](C)O)[C@@H](C)CC)[C@@H](C)CC)[C@@H](C)CC)[C@@H](C)O [Compound 45, [Gly2,Nle10,D-Thi11,Leu16] hGLP-2 (1-30)-NH2] (H-HGDGSFSDE[Nle][d2Thi]TILDLLAARDFINWLIQTK-NH2) | 0.33
7 | CCCC[C@H](NC(=O)[C@H](CCC(=O)O)NC(=O)[C@H](CC(=O)O)NC(=O)[C@H](CO)NC(=O)[C@H](Cc1ccccc1)NC(=O)[C@H](CO)NC(=O)CNC(=O)[C@H](CC(=O)O)NC(=O)CNC(=O)[C@@H](N)Cc1cnc[nH]1)C(=O)N[C@H](Cc1cccs1)C(=O)N[C@H](C(=O)N[C@H](C(=O)N[C@@H](CC(C)C)C(=O)N[C@@H](CC(=O)O)C(=O)N[C@@H](Cc1ccccc1)C(=O)N[C@@H](CC(C)C)C(=O)N[C@@H](C)C(=O)N[C@@H](C)C(=O)N[C@@H](CCCNC(=N)N)C(=O)N[C@@H](CC(=O)O)C(=O)N[C@@H](Cc1ccccc1)C(=O)N[C@H](C(=O)N[C@@H](CC(N)=O)C(=O)N[C@@H](Cc1c[nH]c2ccccc12)C(=O)N[C@@H](CC(C)C)C(=O)N[C@H](C(=O)N[C@@H](CCC(N)=O)C(=O)N[C@H](C(=O)N[C@@H](CCCCN)C(N)=O)[C@@H](C)O)[C@@H](C)CC)[C@@H](C)CC)[C@@H](C)CC)[C@@H](C)O [Compound 46, [Gly2,Nle10,D-Thi11,Phe16] hGLP-2 (1-30)-NH2] (H-HGDGSFSDE[Nle][d2Thi]TILDFLAARDFINWLIQTK-NH2) | 0.26

Same assay, conditions: rat, plasma, adult male Sprague-Dawley rats, i.v. bolus, dose 0.18 mg FB/kg, read-out: CL (ml/kg/min) Average

Row | SMILES | clearance [mL/kg/min]
8 | CCCC[C@H](NC(=O)[C@H](CCC(=O)O)NC(=O)[C@H](CC(=O)O)NC(=O)[C@H](CO)NC(=O)[C@H](Cc1ccccc1)NC(=O)[C@H](CO)NC(=O)CNC(=O)[C@H](CC(=O)O)NC(=O)CNC(=O)[C@@H](N)Cc1c[nH]cn1)C(=O)N[C@H](C(=O)N[C@H](C(=O)N[C@H](C(=O)N[C@@H](CC(C)C)C(=O)N[C@@H](CC(=O)O)C(=O)N[C@@H](CC(N)=O)C(=O)N[C@@H](CC(C)C)C(=O)N[C@@H](C)C(=O)N[C@@H](C)C(=O)N[C@@H](CCCNC(=N)N)C(=O)N[C@@H](CC(=O)O)C(=O)N[C@@H](Cc1ccccc1)C(=O)N[C@H](C(=O)N[C@@H](CC(N)=O)C(=O)N[C@@H](Cc1c[nH]c2ccccc12)C(=O)N[C@@H](CC(C)C)C(=O)N[C@H](C(=O)N[C@@H](CCC(N)=O)C(=O)N[C@H](C(=O)N[C@@H](CCCCN)C(N)=O)[C@@H](C)O)[C@@H](C)CC)[C@@H](C)CC)[C@@H](C)CC)[C@@H](C)O)[C@@H](C)CC [Compound 31, [Gly2,Nle10,Ile11] hGLP-2 (1-30)-NH2] (H-HGDGSFSDE[Nle]ITILDNLAARDFINWLIQTK-NH2) | 5.6
